Here are results for 81 sequences from the OligoGym collection.

After the bases stand the sugars from the 5' end (letter, count) and the backbone: PS all phosphorothioate, else s phosphorothioate and o phosphodiester by linkage. Methylation of C is not given here. e = 2'-O-(2-methoxyethyl) (MOE); k = constrained ethyl (cEt); d = 2'-deoxy (DNA); m = 2'-O-methyl

This data set concerns the target HSD17B13. The conditions noted are these: ASO, HepaRG.

The sequence TTGGGTCCATTGTTTC (sugars k3 d10 k3, PS) registered a target mRNA inhibition (1 µM) of 44%.
In turn, GAGCATTCATCAGATG (sugars k3 d10 k3, PS) had a target mRNA inhibition (1 µM) of 64%.
In turn, TTACGACTTCATCTGT (sugars k3 d10 k3, PS) came in with a target mRNA inhibition (1 µM) of 36%.
CTTTTAGTCAGGTAGA (sugars k3 d10 k3, PS) registered a target mRNA inhibition (1 µM) of 33%.
Sequence “CTACACTAATATTGAG (sugars k3 d1 m1 d8 k3, PS)” returned a target mRNA inhibition (1 µM) of 29%.
Consider “GTTAGTATAGTTATCT (sugars k3 d1 m1 d8 k3, PS)”, for which the target mRNA inhibition (1 µM) was determined as 52%.
For GAGGTATGTCATACTT (sugars k3 d10 k3, PS), the target mRNA inhibition (1 µM) amounted to 29%.
In turn, “TGGAATGCTACTTGAA (sugars k3 d9 k3 e1, PS)” registered a target mRNA inhibition (1 µM) of 57%.
For the sequence GAAGTTAGTATAGTTA (sugars k3 d10 k3, PS), the target mRNA inhibition (1 µM) amounted to 59%.
As for GCATTAATGCCACCCT (sugars k3 d10 k3, PS), the target mRNA inhibition (1 µM) is 36%.
Take TTGGTATGGTAAGCCC (sugars k3 d10 k3, PS): under “1 µM”, the target mRNA inhibition worked out at 62%.
On the same count and under the same terms, next, “CGATCCTATATACATC (sugars kkdddddddddkekek, PS)”: 29%; GTCCTTTGTATTTCGC (sugars k3 d10 k3, PS): 45%.
For the sequence CTGGGATACTATTCTC (sugars k3 d10 k3, PS), the target mRNA inhibition (1 µM) is 57%.
In turn, GACAATGGTTGATAGT (sugars k3 d10 k3, PS) had a target mRNA inhibition (1 µM) of 67%.
The sequence “TTGGUAAGTATTCCAT (sugars k3 d1 m1 d8 k3, PS)” showed a target mRNA inhibition (1 µM) of 13%.
Where the note is “1 µM”, “CAAAAGACTTTGAGAC (sugars kkdddddddddkekek, PS)” displayed a target mRNA inhibition of 32%.
Regarding “GCATCAAGACATTCTA (sugars k3 d9 k3 e1, PS)”, the target mRNA inhibition runs as follows: (0.02 µM) 0%; (0.078 µM) 8%; (0.313 µM) 13%; (1 µM) 84%; (1.25 µM) 31%; (5 µM) 74%.
Where the note is “1 µM”, “TGGTAACGGTGATCAA (sugars k3 d9 k3 e1, PS)” displayed a target mRNA inhibition of 35%.
On to “CTGCTAGTGCCAAACC (sugars kkdddddddddkekek, PS)”, for which the target mRNA inhibition (1 µM) amounted to 51%.
CCATAACCATAGGACA (sugars k3 d10 k3, PS): the target mRNA inhibition is, setting by setting: (0.02 µM) 35%; (0.078 µM) 13%; (0.313 µM) 54%; (1 µM) 63%; (1.25 µM) 78%; (5 µM) 91%.
Take AGCAAAGTTTGGGCAG (sugars k3 d10 k3, PS): the target mRNA inhibition (1 µM) was determined as 44%.
The sequence CTGGTTCAGTCCTTGT (sugars k3 d10 k3, PS) gave a target mRNA inhibition (1 µM) of 63%.
As for GATATTCTGTGGCATG (sugars k3 d10 k3, PS), for the setting “1 µM”, the target mRNA inhibition was determined as 46%.
Turning to GTAGTCCTAGGGAGGA (sugars k3 d10 k3, PS), the target mRNA inhibition (0.02 µM) stood at 20%; the target mRNA inhibition (0.078 µM) is 50%; the target mRNA inhibition (0.313 µM) turned out to be 62%; the target mRNA inhibition (1 µM) was determined as 77%; the target mRNA inhibition (1.25 µM) came to 75%; the target mRNA inhibition (5 µM) is 86%.
The sequence ACCCGCCCTTAAGTCA (sugars k3 d10 k3, PS) came in with a target mRNA inhibition (1 µM) of 48%.
Consider “AAATATGTCCAGGTTG (sugars kkdddddddddkekek, PS)”, for which the target mRNA inhibition (1 µM) turned out to be 61%.
Turning to “TACAGATTGGAATGCT (sugars k3 d1 m1 d8 k3, PS)”, the target mRNA inhibition (1 µM) stood at 60%.
Same read-out and setting: next, TGAAGCCACTGTGACG (sugars k3 d10 k3, PS): 49%.
AAGTGCTTTTGTGATC (sugars k3 d10 k3, PS) registered a target mRNA inhibition (1 µM) of 41%.
For the sequence “CATAUGTGAAGAGCTG (sugars k3 d1 m1 d8 k3, PS)”, where the note is “1 µM”, the target mRNA inhibition turned out to be 39%.
As for “CTTTUTATAGACTGGG (sugars k3 d1 m1 d8 k3, PS)”, for the setting “1 µM”, the target mRNA inhibition stood at 34%.
As for CTGCCAGGGAATGCTC (sugars k3 d10 k3, PS), the target mRNA inhibition (1 µM) worked out at 23%.
Turning to ACTGAGTAAACGACTC (sugars k3 d10 k3, PS), the target mRNA inhibition (1 µM) was determined as 45%.
On the same count and under the same terms, with CTGGAGGTATGTCATA (sugars k3 d10 k3, PS) the figure was 23%; with TTAGGAAAGCTCATGG (sugars k3 d10 k3, PS), 26%; with TTTATAGACTGGGTAG (sugars k3 d10 k3, PS), 59%.
For the setting “1 µM”, TCATACCACATACCCA (sugars k3 d10 k3, PS) came in with a target mRNA inhibition of 41%.
With “ACTGCTGCTAGTGCCA (sugars kkdddddddddkekek, PS)”, the target mRNA inhibition (1 µM) amounted to 39%.
Same read-out and setting: with AAAGGTGGGATAAACT (sugars k3 d10 k3, PS) the figure was 33%; with “GTCACCTTTCATAATG (sugars k3 d9 k3 e1, PS)”, 21%; with “TTAGUCTTGATGTAGT (sugars k3 d1 m1 d8 k3, PS)”, 50%.
In turn, TGGGATAGTGGAGGAA (sugars k3 d10 k3, PS) gave a target mRNA inhibition (1 µM) of 13%.
Sequence “ATCAAGACATTCTAGC (sugars k3 d9 k3 e1, PS)” displayed a target mRNA inhibition (1 µM) of 52%.
Sequence GTTTAGCAATTTAGCA (sugars k3 d10 k3, PS) gave a target mRNA inhibition (1 µM) of 50%.
Take AGCCACTGTGACGATG (sugars k3 d10 k3, PS): under “1 µM”, the target mRNA inhibition stood at 10%.
Sequence “TAAACCTTCCCTGTGT (sugars k3 d9 k3 e1, PS)” showed a target mRNA inhibition (1 µM) of 23%.
Sequence TACGATGGAACAAAAA (sugars k3 d10 k3, PS) yielded a target mRNA inhibition (1 µM) of 20%.
Same read-out and setting: with “TAGTGCCAAACCAATG (sugars k3 d1 m1 d8 k3, PS)” the figure was 55%.
“ATCTTATAAGACTATA (sugars kkdddddddddkekek, PS)” yielded a target mRNA inhibition (1 µM) of 30%.
Same read-out and setting: next, “TAAGCTGAGAGTTCTA (sugars k3 d9 k3 e1, PS)”: 48%; “GTGCCAAACCAATGTT (sugars k3 d9 k3 e1, PS)”: 56%; ACCAAGAGACACCACC (sugars k3 d10 k3, PS): 41%.
Where the note is “1 µM”, TATAGTAATCACAAGT (sugars k3 d10 k3, PS) yielded a target mRNA inhibition of 53%.
Same read-out and setting: with CAAGGAGTATGACAAC (sugars k3 d10 k3, PS) the figure was 6%; with CTGTGAGAGGATAGTG (sugars k3 d10 k3, PS), 33%; with TCAAAACCTTTGTTGC (sugars k3 d10 k3, PS), 6%.
In turn, TAATAATGGGCAGAGC (sugars k3 d10 k3, PS) returned a target mRNA inhibition (1 µM) of 30%.
The sequence GATCGGCTGGATATAC (sugars k3 d10 k3, PS) had a target mRNA inhibition (1 µM) of 7%.
In turn, GTTGCACCGTTTTGGG (sugars k3 d10 k3, PS) registered a target mRNA inhibition (1 µM) of 56%.
For the setting “1 µM”, “AAATAGAGTCGGTCAC (sugars k3 d9 k3 e1, PS)” gave a target mRNA inhibition of 48%.
Regarding AGTGAATCATTCAGTA (sugars k3 d10 k3, PS), the target mRNA inhibition reads like this: (0.02 µM) 49%; (0.078 µM) 54%; (0.313 µM) 80%; (1 µM) 86%; (1.25 µM) 93%; (5 µM) 94%.
Where the note is “1 µM”, “CATATGTGAAGAGCTG (sugars k3 d9 k3 e1, PS)” registered a target mRNA inhibition of 50%.
Consider CTGAAATTGATACACC (sugars k3 d10 k3, PS), for which the target mRNA inhibition (1 µM) amounted to 67%.
Where the note is “1 µM”, ATCCATTCTATGCAAG (sugars k3 d10 k3, PS) displayed a target mRNA inhibition of 46%.
Sequence ATACTTACCAATATGG (sugars k3 d10 k3, PS) displayed a target mRNA inhibition (1 µM) of 0%.
CATAAGGCCGATTCAT (sugars k3 d10 k3, PS): the target mRNA inhibition (1 µM) turned out to be 32%.
For the sequence CTGGATATACTGTCCC (sugars k3 d10 k3, PS), the target mRNA inhibition (1 µM) came out at 20%.
Take “TTGGAATGCTACTTGA (sugars k3 d1 m1 d8 k3, PS)”: for the setting “1 µM”, the target mRNA inhibition was found to be 65%.
As to GCAAATACAGCAGTAC (sugars k3 d10 k3, PS), the target mRNA inhibition (1 µM) turned out to be 56%.
On to “AGTCGGTCACCTTTCA (sugars k3 d9 k3 e1, PS)”, for which the target mRNA inhibition came out at 1% (0.02 µM); 17% (0.078 µM); 37% (0.313 µM); 75% (1 µM); 66% (1.25 µM); 62% (5 µM).
As for “TTAGTATAGTTATCTT (sugars kkdddddddddkekek, PS)”, the target mRNA inhibition (1 µM) is 33%.
As to “GTATCTTATAAGACTA (sugars k3 d1 m1 d8 k3, PS)”, the target mRNA inhibition worked out at 13% (0.02 µM); 26% (0.078 µM); 39% (0.313 µM); 79% (1 µM); 66% (1.25 µM); 84% (5 µM).
For the setting “1 µM”, “GACATGAGGTTTTGAT (sugars k3 d9 k3 e1, PS)” yielded a target mRNA inhibition of 55%.
As to AGAGGGTCCACTTTTG (sugars k3 d10 k3, PS), for the setting “1 µM”, the target mRNA inhibition came out at 34%.
With “TACTTGAACAGTCTTA (sugars kkdddddddddkekek, PS)”, the target mRNA inhibition (1 µM) was found to be 60%.
ACAGTAAAATTATGCC (sugars k3 d10 k3, PS): the target mRNA inhibition is, setting by setting: (0.02 µM) 0%; (0.078 µM) 0%; (0.313 µM) 4%; (1 µM) 73%; (1.25 µM) 50%; (5 µM) 68%.
On to “GAGTTGCACCGTTTTG (sugars kkdddddddddkekek, PS)”, for which the target mRNA inhibition (1 µM) was 61%.
As for “ATCTTAAGATACCCAG (sugars k3 d9 k3 e1, PS)”, for the setting “1 µM”, the target mRNA inhibition was 71%.
With CCCCGAATTATTTCTT (sugars k3 d10 k3, PS), the target mRNA inhibition (1 µM) was determined as 35%.
On to “TTGCACCGTTTTGGGC (sugars k3 d1 m1 d8 k3, PS)”, for which, for the setting “1 µM”, the target mRNA inhibition amounted to 50%.
